Data from PubChem BioAssay AID2060624 (Molecular Pharmacology Branch, DTP, NCI, 2025).

Tested on: 217524-143-R1-J4-PDC spheroids with HUVEC/MSC, viability
Assay: Anticancer human tumor 217524-143-R1-J4-PDC patient-derived pancreatic carcinoma cell line growth inhibition [CLK]
Settings: for IC50: curve of first compound; for viability, T/C: stronger effect = lower value; active means viability on the fitted dose curve at most 10% of control; inactive means the rest
Excerpt: A high-throughput screen of multi-cell type tumor spheroids was designed to identify active combinations of […] and targeted small molecules. Complex spheroids include a stromal component modeled by human endothelial cells (HUVEC) and fibroblasts modeled by human mesenchymal stem cells (MSCs). The concentration ranges selected for each drug and investigational agent were based upon clinically achievable concentrations if the clinical Cmax of the agent was known.
Compounds. The drugs and investigational agents: cirtuvivint (SM08502; NSC835563), CC-671 (NSC850746), vemurafenib (NSC761431), tapotoclax (NSC804041), sotorasib (NSC818433), adagrasib (NSC831453), MRTX-1133 (NSC836407), BAY2416964 (NSC825713), copanlisib (NSC816437), inavolisib (NSC800729), abemaciclib (NSC768073), osimertinib (NSC779217), entinostat (NSC756642), eltanexor (KPT-8602, NSC794443), venetoclax (NSC766270), ceralasertib (NSC777638), bortezomib (NSC756655), olaparib (NSC753686), talazoparib (NSC767125), alisertib (NSC759677), peposertib (NSC802822), gemcitabine (NSC613327), 5-fluorouracil (NSC19893), SN-38 (NSC673596), oxaliplatin (NSC266046), paclitaxel (NSC125973), and doxorubicin (NSC123127), were obtained from the National Cancer Institute (NCI) Developmental Therapeutics Program Chemical Repository. The FDA-approved anticancer drug set is available from the Developmental Therapeutics Program at https://dtp.cancer.gov/organization/dscb/obtaining/available plates.htm. […] The stock solutions were prepared in dimethyl sulfoxide (DMSO, Sigma-Aldrich, St. Louis, MO, cat. D2650), except for the platinum complexes which were prepared in saline (Quality Biological, Gaithersburg, MD, cat. 114-055-101), at 800-fold the tested concentration and stored at -70 degrees C prior to their use. All drugs and investigational agents were tested over a range starting from a high concentration at or near the clinical Cmax and decreasing in half-log increments. If the clinical Cmax for an agent had not been determined, the highest concentration tested was 10 microM.
Cell Culture. All cells were maintained in an incubator at 37 degrees C and 5% CO2 with 95% humidity. The PDC lines were cultured according to standard operating procedures established by the NCI PDMR. Briefly, all PDCs were thawed and cultured in Matrigel-coated flasks prepared with a working solution of 1X Ham's F-12 nutrient mix, without supplementation (Invitrogen, Waltham, MA, cat. 11765054), 100 U/mL penicillin-streptomycin (Invitrogen, cat. 15140122), and 2.5% Matrigel (Corning Inc., Corning, NY, cat. 354248) for the first three passages. The 947758-054-R-J2-PDC line was cultured in 6B/Colon 1A media, which includes advanced DMEM/F-12 (Thermo Fisher Scientific, cat. 12634028), 10 mM HEPES (Thermo Fisher Scientific, cat. 15630080), 1X GlutaMAX supplement (Thermo Fisher Scientific, cat. 35050061), 0.1 mg/mL primocin (InvivoGen, cat. ant-pm-2), 10% defined fetal bovine serum, heat inactivated (HyClone Laboratories Inc., cat. SH30070.03HI), 1.25 mM N-Acetyl-L-cysteine (Sigma-Aldrich, cat. A9165), 10 mM nicotinamide (Sigma-Aldrich, cat. N0636), 1X B-27 supplement (Thermo Fisher Scientific, cat. 17504044), 1X N-2 supplement (Thermo Fisher Scientific, cat. 17502048), and 10 microM Y-27632 dihydrochloride (Tocris Bioscience, cat. 1254). The 876862-298-R-J1-PDC was cultured in 6E media, which includes all 6B/Colon 1A media components plus 50% L-WRN conditioned media (ATCC, cat. CRL-3276), 50 ng/mL recombinant human EGF recombinant protein (hEGF; Thermo Fisher Scientific, cat. PHG0311), 10 ng/mL recombinant human fibroblast growth factor 10 (hGFG-10; PeproTech, cat. 100-26), 1 ng/mL recombinant human fibroblast growth factor 2 (hFGF-2; PeproTech, cat. 100-18B), and 1 µM prostaglandin E2 (PGE2; Tocris, cat. 2296). The 227483-062-R1-J1-PDC line was cultured in Panc media, containing all 6E components except hFGF-2, with the addition of 500 nM SB-431542 (Selleckchem, cat. S1067) and 10 nM gastrin (Tocris, cat. 3006). […]

[1] = second compound 0.0316 µM, first compound 0.0316 µM
[2] = second compound 0.0316 µM, first compound 0.1 µM
[3] = second compound 0.0316 µM, first compound 0.316 µM
[4] = second compound 0.0316 µM, first compound 1 µM
[5] = second compound 0.0316 µM, first compound 3.16 µM
[6] = second compound 0.0316 µM, first compound 10 µM
[7] = second compound 0.1 µM, first compound 0.0316 µM
[8] = second compound 0.1 µM, first compound 0.1 µM
[9] = second compound 0.1 µM, first compound 0.316 µM
[10] = second compound 0.1 µM, first compound 1 µM
[11] = second compound 0.1 µM, first compound 3.16 µM
[12] = second compound 0.1 µM, first compound 10 µM
[13] = second compound 0.316 µM, first compound 0.0316 µM
[14] = second compound 0.316 µM, first compound 0.1 µM
[15] = second compound 0.316 µM, first compound 0.316 µM
[16] = second compound 0.316 µM, first compound 1 µM
[17] = second compound 0.316 µM, first compound 3.16 µM
[18] = second compound 0.316 µM, first compound 10 µM
[19] = second compound 1 µM, first compound 0.0316 µM
[20] = second compound 1 µM, first compound 0.1 µM
[21] = second compound 1 µM, first compound 0.316 µM
[22] = second compound 1 µM, first compound 1 µM
[23] = second compound 1 µM, first compound 3.16 µM
[24] = second compound 1 µM, first compound 10 µM
[25] = second compound 3.16 µM, first compound 0.0316 µM
[26] = second compound 3.16 µM, first compound 0.1 µM
[27] = second compound 3.16 µM, first compound 0.316 µM
[28] = second compound 3.16 µM, first compound 1 µM
[29] = second compound 3.16 µM, first compound 3.16 µM
[30] = second compound 3.16 µM, first compound 10 µM
[31] = second compound 10 µM, first compound 0.0316 µM
[32] = second compound 10 µM, first compound 0.1 µM
[33] = second compound 10 µM, first compound 0.316 µM
[34] = second compound 10 µM, first compound 1 µM
[35] = second compound 10 µM, first compound 3.16 µM
[36] = second compound 10 µM, first compound 10 µM
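Further: spheroids exposed to agents for seven days before reading.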

Nc1ccn(C2OC(CO)C(O)C2(F)F)c(=O)n1 (centres undefined) + CNC(=O)c1ccc(Nc2nc(OC3CCCC3)c3c(-c4ccc5nc(C)oc5c4)c[nH]c3n2)c(OC)c1
< 31.6 nM: IC50 (second compound 0.1 µM) | IC50 (second compound 0.316 µM) | IC50 (second compound 1 µM) | IC50 (second compound 3.16 µM) | IC50 (second compound 10 µM)
inactive: viability, T/C [1] 60.1% | viability, T/C [2] 31% | viability, T/C [3] 25.2% | viability, T/C [4] 29.9% | viability, T/C [5] 30.4% | viability, T/C [6] 25.1% | viability, T/C [7] 35.3% | viability, T/C [8] 28.8% | viability, T/C [9] 20.8% | viability, T/C [10] 33.2% | viability, T/C [11] 29% | viability, T/C [12] 28.1% | viability, T/C [13] 28.9% | viability, T/C [14] 25.1% | viability, T/C [15] 18.5% | viability, T/C [16] 23.5% | viability, T/C [17] 20.6% | viability, T/C [18] 21.3% | viability, T/C [19] 24.8% | viability, T/C [20] 17.1% | viability, T/C [21] 13.6% | viability, T/C [22] 19.9% | viability, T/C [23] 13.3% | viability, T/C [24] 14.5% | viability, T/C [25] 21.8% | viability, T/C [26] 18.1% | viability, T/C [27] 11.2% | viability, T/C [28] 13.5% | viability, T/C [29] 14.3% | viability, T/C [30] 11.6% | viability, T/C [31] 23.4% | viability, T/C [32] 18.6% | viability, T/C [33] 12.8% | viability, T/C [34] 10.8% | viability, T/C [35] 13.8% | viability, T/C [36] 11.8%
47 nM: IC50 (second compound 0.0316 µM)

CC1(C)CCC(CN2CCN(c3ccc(C(=O)NS(=O)(=O)c4ccc(NCC5CCOCC5)c([N+](=O)[O-])c4)c(Oc4cnc5[nH]ccc5c4)c3)CC2)=C(c2ccc(Cl)cc2)C1 + CNC(=O)c1ccc(Nc2nc(OC3CCCC3)c3c(-c4ccc5nc(C)oc5c4)c[nH]c3n2)c(OC)c1
inactive: viability, T/C [1] 86.2% | viability, T/C [2] 87.7% | viability, T/C [3] 81.2% | viability, T/C [4] 79% | viability, T/C [5] 88.5% | viability, T/C [6] 79.3% | viability, T/C [7] 42.1% | viability, T/C [8] 45% | viability, T/C [9] 38.1% | viability, T/C [10] 46.1% | viability, T/C [11] 39.1% | viability, T/C [12] 37.7% | viability, T/C [13] 34.1% | viability, T/C [14] 40.7% | viability, T/C [15] 38.7% | viability, T/C [16] 38.2% | viability, T/C [17] 36.9% | viability, T/C [18] 37.1% | viability, T/C [19] 24.4% | viability, T/C [20] 29.3% | viability, T/C [21] 31.6% | viability, T/C [22] 27.4% | viability, T/C [23] 31.4% | viability, T/C [24] 25.9% | viability, T/C [25] 27.4% | viability, T/C [26] 28.9% | viability, T/C [27] 24.1% | viability, T/C [28] 27.2% | viability, T/C [29] 29.1% | viability, T/C [30] 22.3% | viability, T/C [31] 23.1% | viability, T/C [32] 25.7% | viability, T/C [33] 24.9% | viability, T/C [34] 26.4% | viability, T/C [35] 26.7% | viability, T/C [36] 24.9%
< 31.6 nM: IC50 (second compound 0.1 µM) | IC50 (second compound 0.316 µM) | IC50 (second compound 1 µM) | IC50 (second compound 3.16 µM) | IC50 (second compound 10 µM)
> 10000 nM: IC50 (second compound 0.0316 µM)
